Measured values: ChEMBL document CHEMBL4145534, “Computer-aided insights into receptor-ligand interaction for novel 5-arylhydantoin derivatives as serotonin 5-HT7 receptor agents with antidepressant activity” (Eur J Med Chem, 2018)

How the values were obtained:
Assay type in all cases: functional
Mus musculus [1] = test: Antidepressant like activity in Swiss albino mouse assessed as immobility time at 5 mg/kg, ip administered 30 mins prior to test and measured last 4 mins of 6 mins test by forced swimming test (reference value: 162.71 +/- 6.8 secs)
Mus musculus [2] = test: Antidepressant like activity in Swiss albino mouse assessed as immobility time at 20 mg/kg, ip administered 30 mins prior to test and measured last 4 mins of 6 mins test by forced swimming test (reference value: 162.71 +/- 6.8 secs)
Mus musculus [3] = test: Antidepressant like activity in Swiss albino mouse assessed as immobility time at 10 mg/kg, ip administered 30 mins prior to test and measured last 4 mins of 6 mins test by forced swimming test (reference value: 162.71 +/- 6.8 secs)

SMILES: CN(C)CCCN1c2ccccc2CCc2ccccc21 [IMIPRAMINE]
- Time (Mus musculus [1]): 170.42 s
- Time (Mus musculus [2]): 77.81 s
- Time (Mus musculus [3]): 119.63 s
